Laboratory results: patent publication US20240376099A1, “COMPOUNDS AND COMPOSITIONS AS INHIBITORS OF ENDOSOMAL TOLL-LIKE RECEPTORS” (Novartis AG, priority 2016, published 2024)

What follows are compounds tested against T1, TLR8 (Homo sapiens, UniProt Q9NR97) (assay: huPBMC TLR8 Antagonist IL-6 TR-FRET Assay). Conditions: human PBMCs stimulated with ssRNA40 1 μg/ml (DOTAP), 14-16 hrs; IL-6 TR-FRET read-out.
T1 sequence (Q9NR97 27-1041): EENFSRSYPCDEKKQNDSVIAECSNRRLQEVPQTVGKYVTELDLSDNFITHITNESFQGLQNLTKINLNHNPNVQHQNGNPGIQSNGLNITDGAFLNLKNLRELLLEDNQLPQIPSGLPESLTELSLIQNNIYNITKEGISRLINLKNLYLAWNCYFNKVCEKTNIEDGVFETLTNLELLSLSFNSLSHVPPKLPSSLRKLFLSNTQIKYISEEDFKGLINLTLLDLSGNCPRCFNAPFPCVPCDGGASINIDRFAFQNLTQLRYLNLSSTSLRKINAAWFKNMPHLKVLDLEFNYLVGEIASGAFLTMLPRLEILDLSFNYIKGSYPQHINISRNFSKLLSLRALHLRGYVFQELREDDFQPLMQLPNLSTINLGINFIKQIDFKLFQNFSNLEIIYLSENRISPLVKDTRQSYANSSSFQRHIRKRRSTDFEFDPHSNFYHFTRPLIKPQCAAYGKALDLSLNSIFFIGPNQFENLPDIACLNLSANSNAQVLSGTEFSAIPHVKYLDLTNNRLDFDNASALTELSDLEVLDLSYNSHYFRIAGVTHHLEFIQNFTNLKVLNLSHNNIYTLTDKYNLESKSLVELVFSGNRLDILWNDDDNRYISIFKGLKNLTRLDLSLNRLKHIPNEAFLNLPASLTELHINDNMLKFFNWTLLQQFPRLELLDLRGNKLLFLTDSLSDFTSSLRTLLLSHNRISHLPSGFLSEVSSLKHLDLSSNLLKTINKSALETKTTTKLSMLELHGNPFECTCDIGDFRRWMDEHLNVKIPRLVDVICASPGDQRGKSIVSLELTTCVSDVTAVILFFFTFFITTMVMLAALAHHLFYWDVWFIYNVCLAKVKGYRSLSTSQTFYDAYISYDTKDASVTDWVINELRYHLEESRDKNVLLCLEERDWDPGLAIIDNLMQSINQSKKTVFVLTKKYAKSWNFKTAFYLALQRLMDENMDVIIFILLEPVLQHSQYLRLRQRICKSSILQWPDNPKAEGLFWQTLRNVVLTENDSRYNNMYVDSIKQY
Assay type: cell-based
Parameters: Fresh blood was collected from normal human donors; endogenous in cells; host or cells: human PBMCs from fresh donor blood
Procedure, shortened: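 Human PBMCs from fresh donor blood (150,000 cells/well) stimulated 14–16 h at 37 °C with DOTAP-complexed ssRNA40 (final 1 μg/ml for TLR8, 10 μg/mL for TLR7) or ODN2216 (final 0.3 μM, TLR9), 0.25% DMSO, ten-point 1/3 compound dilutions. Supernatant IL-6 read by HTRF (TLR8); IFNα by IFNα2b AlphaLISA (TLR7/TLR9).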

Compound	IC50 [nM]
Cc1cc(N2CCc3c(c(C)nn3CC34CCC(N(C)C5CCC5)(CC3)CC4)C2)c2cnn(C)c2n1 [compound 79, N-cyclobutyl-4-((5-(1,6-dimethyl-1H-pyrazolo[3,4-b]pyridin-4-yl)-3-methyl-4,5,6,7-tetrahydro-1H-pyrazolo[4,3-c]pyridin-1-yl)methyl)-N-methylbicyclo[2.2.2]octan-1-amine]	136
Cc1cc(N2CCc3c(c(C)nn3CC34CCC(N5C[C@H](O)[C@@H](O)C5)(CC3)CC4)C2)c2cnn(C)c2n1 [compound 80, (3S,4S)-1-(4-((5-(1,6-dimethyl-1H-pyrazolo[3,4-b]pyridin-4-yl)-3-methyl-4,5,6,7-tetrahydro-1H-pyrazolo[4,3-c]pyridin-1-yl)methyl)bicyclo[2.2.2]octan-1-yl)pyrrolidine-3,4-diol]	466
Cc1cc(N2CCc3c(c(C)nn3CCC34CCC(N)(CC3)CC4)C2)c2cnn(C)c2n1 [compound 91, 4-(2-(5-(1,6-dimethyl-1H-pyrazolo[3,4-b]pyridin-4-yl)-3-methyl-4,5,6,7-tetrahydro-1H-pyrazolo[4,3-c]pyridin-1-yl)ethyl)bicyclo[2.2.2]octan-1-amine]	377
Cc1cc(N2CCc3c(c(C)nn3CC34CCC(N)(CC3)CC4)C2)c2ccnc(C)c2n1 [compound 92, 4-((5-(2,8-dimethyl-1,7-naphthyridin-4-yl)-3-methyl-4,5,6,7-tetrahydro-1H-pyrazolo[4,3-c]pyridin-1-yl)methyl)bicyclo[2.2.2]octan-1-amine]	40

Continued, values first:

IC50 [nM]	Compound
134	Cc1cc(N2CCc3c(c(C)nn3CC34CCC(N5CC[C@H](O)C5)(CC3)CC4)C2)c2cnn(C)c2n1 [compound 75, (S)-1-(4-((5-(1,6-dimethyl-1H-pyrazolo[3,4-b]pyridin-4-yl)-3-methyl-4,5,6,7-tetrahydro-1H-pyrazolo[4,3-c]pyridin-1-yl)methyl)bicyclo[2.2.2]octan-1-yl)pyrrolidin-3-ol]
224	Cc1nn(CC23CCC(N4CCCC4)(CC2)CC3)c2c1CN(c1ccnc(-c3ccccc3)c1)CC2 [compound 85, 3-methyl-5-(2-phenylpyridin-4-yl)-1-((4-(pyrrolidin-1-yl)bicyclo[2.2.2]octan-1-yl)methyl)-4,5,6,7-tetrahydro-1H-pyrazolo[4,3-c]pyridine]
48	Cc1cc(N2CCc3c(c(C)nn3CC34CCC(N5CCCC5)(CC3)CC4)C2)c2ccncc2n1 [compound 86, 2-methyl-4-(3-methyl-1-((4-(pyrrolidin-1-yl)bicyclo[2.2.2]octan-1-yl)methyl)-6,7-dihydro-1H-pyrazolo[4,3-c]pyridin-5(4H)-yl)-1,7-naphthyridine]
